Reference: US7605156B2, “Methods for the use of inhibitors of cytosolic phospholipase A2” (Wyeth, priority 2001, dated 2009)

Legend:
[1] = tested on: Primary dopaminergic neurons; test: MPP+ exposure in dopaminergic neurons (3H-dopamine uptake); format: cell-based, rat; conditions: 10 μM MPP+ for 60 minutes, read 24 hours later
Method: Primary dopaminergic neurons were isolated from E15 rat embryos as described in Pong K., et al., (1997) J. Neurochem. 69 986-994. Briefly, the ventral mesencephalon was isolated and tissue was pooled in ice-cold phosphate buffer saline (PBS) without Ca^2+ and Mg^2+. The tissue was transferred to an enzymatic dissociation media containing 20 IU/ml papain in Earle's balanced salt solution (Worthington Biochemical, Freehold, N.J.) and incubated for 30 minutes at 37° C. After enzymatic dissociation, the papain solution was aspirated and the tissue mechanically triturated with a fire-polished Pasteur pipette in complete media [Neurobasal Medium with B-27 supplement (Gibco, Grand Island, N.Y.), penicillin/streptomycin, aphidicolin, glutamate] containing 2,000 IU/ml DNase and 10 mg/ml ovomucoid protease inhibitor. Single-cell suspensions in complete media were plated on pre-coated poly-L-ornithine/laminin 24-well plates (Becton-Dickinson, Bedford, Mass.) at a density of 5.0×10^5 cells/well. […]
Cultures were treated with various concentrations of Compound A and GDNF (glial-cell line derived neurotrophic factor, a positive control) hours before exposure to the neurotoxin MPP^+, the toxic metabolite of MPTP. […] Dopaminergic neuron viability was determined 24 hours later by measuring ^3H-dopamine uptake as described in Pong et al., 1997, supra.

B6 mice = test: Experimental autoimmune encephalomyelitis (EAE), animal model of multiple sclerosis; format: in vivo; conditions: orally, 100 mg/kg, twice/day
Method: Six groups of B6 mice were immunized with MOG/CFA and injected with pertussis toxin to induce experimental autoimmune encephalomyelitis (EAE), an animal model of Multiple sclerosis. […] Another three groups of mice were treated with vehicle, Compound A or Compound B starting on the day of EAE onset (day 15) (orally, 100 mg/kg, twice/day). […] The results are shown in FIG. 1, wherein mean clinical score is a mean of clinical evaluation of each animal for that particular day. Animals are scored as follows: • 0 no clinical signs of EAE (no paralysis) • 1—paralysis of tail • 2—paralysis of tail and partial hind leg paralysis • 3—paralysis of tail And complete hind leg paralysis • 4—paralysis of tail, complete hind leg paralysis and a partial front leg paralysis • 5—moribund animal (all four limbs paralyzed, lack of responsiveness, these mice were immediately euthanized).

[2] = tested on: Primary cerebellar granule neurons; test: Oxygen-glucose deprivation (OGD) in cultured neurons; format: cell-based, rat; conditions: various concentrations, added 60 minutes before OGD; 2 hours OGD, read 24 hours later
Method: Primary cerebellar granule neurons were isolated from P5-8 rat pups. Briefly, cerebelli were collected and pooled in ice-cold phosphate buffer saline (PBS) without Ca^2+ and Mg^2+. The tissue was finely chopped and transferred to an enzymatic dissociation media containing 20 IU/ml papain in Earle's balanced salt solution (Worthington Biochemical, Freehold, N.J.) and incubated for 30 minutes at 37° C. After enzymatic dissociation, the papain solution was aspirated and the tissue mechanically triturated with a fire-polished Pasteur pipette in complete media [Neurobasal Medium with B-27 supplement (Gibco, Grand Island, N.Y.), penicillin/streptomycin, aphidicolin, glutamate, potassium chloride] containing 2,000 IU/ml DNase and 10 mg/ml ovomucoid protease inhibitor. Single-cell suspensions in complete media were plated on pre-coated poly-L-ornithine/laminin 24-well plates (Becton-Dickinson, Bedford, Mass.) at a density of 5.0×10^5 cells/well. Cells were maintained for two weeks prior to experimentation.
Cultures were treated with Compound A at various concentrations, 60 minutes before OGD. Media was removed and replaced with deoxygenated buffer in an anaerobic chamber (80% nitrogen, 10% hydrogen, 10% carbon dioxide gas mixture). […] Cell death was determined by measuring lactate dehydrogenase release into the media 24 hours later (Roche Biochemicals). […]

Adult male Wistar rats [3] = test: Transient middle cerebral artery occlusion (tMCAO); format: in vivo
Method: Adult male Wistar rats (Charles River, Wilmington, Mass.) 290-310 g were anesthetized with 3% isoflurane in 70% nitrous oxide and 30% oxygen through a nose cone. Temperature was maintained at 37° C. throughout the surgery using a heating lamp. Transient MCAO was induced for 90 min using the intraluminal suture method (see Longa, E. L. et al., 1989 Stroke 20:294-297). Briefly, an 18 mm length of 4-0 monofilament nylon suture coated with 0.1% poly-L-lysine (Belayev, L. et al, 1996 Stroke 27:1616-1623) and a flame-rounded tip was inserted into the external carotid artery and advanced through the internal carotid to occlude the origin of the middle cerebral artery (MCAO). Ninety minutes later the rats were re-anesthetized and the suture was withdrawn. Rats were sacrificed at 72 hrs post-MCAO.
Behavioral score: Animals are tested for motor deficits using a modified Bederson score. Briefly, animals are tested for flexion of the contralateral forelimb, twisting of the torso, decreased resistance to lateral push, circling to the contralateral side when holding the tail, and spontaneous circling. Each animal is scored 1 point for each behavior detected for a total of 5 points. Each animal is score at 90 min, just prior to reperfusion, at 24 hrs, 48 hrs and 72 hrs following MCAO.
Body weight is taken prior to MCAO surgery for baseline and 24 hrs, 48 hrs and 72 hrs after MCAO.
(§1) After sacrifice, the brains are extracted and placed in a rat brain matrix and 2 mm coronal slabs are taken from 4 mm caudal to the frontal pole and extending to the hindbrain. Sections are immersed in the active mitochondrial stain TTC at 37° C. for 10 min to delineate the lesion. Digitized sections are collected on the MCID image analysis system (Imaging Research, Inc. Ontario, Canada), area measurements are determined and a total lesion volume is calculated (area×distance in mm).

Adult male Wistar rats [4] = test: Permanent middle cerebral artery occlusion (pMCAO); format: in vivo; conditions: dosed four times; 72 hours post ischemia
Method: Adult male Wistar rats (Charles River, Wilmington, Mass.) 270-300 g were anesthetized with 3% isoflurane in 70% nitrous oxide and 30% oxygen through a nose cone. Temperature was maintained at 37° C. throughout the surgery using a heating lamp. Permanent occlusion of MCAO was induced by electrocauterization of the distal portion of the MCA (via a craniotomy) with a 120 min ligation of both carotid arteries to interrupt collateral circulation (see Chen, S. T., et al, 1986 Stroke 17:738-743). Rats were sacrificed 72 hours post ischemia for measurement of infarct volume.
as §1

[5] = 10 mg/kg and 30 mg/kg four times

Cc1cccc(C)c1CS(=O)(=O)NCCc1c(CCCc2ccc(C(=O)O)cc2)c2cc(Cl)ccc2n1C(c1ccccc1)c1ccccc1 [Example 52, 4-{3-[1-benzhydryl-5-chloro-2-(2-{[(2,6-dimethylbenzyl)-sulfonyl]amino}ethyl)-1H-indol-3-yl]propyl}benzoic acid]
dopaminergic neuron viability (3H-dopamine uptake) [1]: effective to protect dopaminergic neuron viability against MPP^+ | EAE clinical score: prevention of EAE (B6 mice; from the day of immunization): prevent EAE | EAE clinical score: clinical severity of EAE (B6 mice; starting on the day of EAE onset (day 15)): reduce clinical severity of EAE | OGD-induced cell death (lactate dehydrogenase release) [2]: effective in protecting cultured neurons from OGD-induced cell death | behavioral deficits (modified Bederson score) (Adult male Wistar rats [3]; [5]): effectively reduced behavioral deficits | weight loss following MCAO (Adult male Wistar rats [3]; [5]): reduced weight loss | infarct volume (Adult male Wistar rats [3]; 10 mg/kg or 30 mg/kg four times (90 min, […], 24 hr, 48 hr post occlusion)): significant level of neuroprotection | therapeutically relevant window of opportunity (Adult male Wistar rats [3]; 30 mg/kg 3 times, first dose 4 or 6 hrs post occlusion, measuring infarct volume and neurological deficits): at least 6 hrs | significant treatment window (Adult male Wistar rats [3]; 30 mg/kg 3 times, first dose 4 or 6 hrs post occlusion, measuring weight loss): 4 h | infarct volume (Adult male Wistar rats [4]): significantly reduces infarct volume
